# Counter-ions that a name gives are not always drawn.
# Tests used:
# CSE [1] = target: T1, CSE (Homo sapiens, UniProt P32929); test: CSE activity with Sugammadex in human plasma; design: from tissue; host or cells: human blood plasma (lithium heparin)
# Description: (§1) 2.9 Cystathionine γ-lyase (CSE) activity measurement: CSE activity was measured as previously reported. Plasma or tissue lysates were incubated with 2 mM cystathionine, 0.25 mM pyridoxal 5′-phosphate in 100 mM Tris-HCl buffer (pH 8.3) for 60 min at 37° C. 10% Trichloroacetic acid was added into reaction mixture. After centrifugation, the supernatant was mixed with 1% ninhydrin reagent and incubated for 5 min in a boiling-water bath. After heating, the solution was cooled on ice for 2 minutes and color reaction development measured 20 minutes at 455 nm using a spectrophotometer (Biotek). CSE activity was assessed by cystathionine consumption and enzyme activity expressed as fold change calculated from nanomoles of cystathionine consumed per mg of total protein per hour of incubation.
# [2] = Sulfide release with Sugammadex in human plasma; details: human blood
# Description: (§2) . Free sulfide was measured using 50 μl of plasma with MBB; whereas for detection of ALS and BSS, 50 μl of plasma was added separately into two sets of 4 mL BD vacutainer tubes. […]. Following a 30-min incubation on a nutator, the reaction liquid was removed, and the evolved sulfide gas subsequently trapped by adding 500 μl of 100 mM Tris-HCl buffer (pH 9.5, 0.1 mM DTPA) into the BD vacutainer tube and incubated again for 30 min on a nutator mixer. […]. Determination of ALS was made by reacting plasma samples with acidic phosphate buffer alone and subsequent trapping of evolved sulfide. Measurement of BSS was determined by subtracting the acid labile value from the total sulfide protocol containing TCEP reductant treatment under acidic conditions. […]
# [3] = Sulfide release with Sugammadex in WT and CSE knockout mice; format: in vivo, mouse; details: single injection 0.2 mg/kg
# Description: . Free sulfide was measured using 50 μl of plasma with MBB; whereas for detection of ALS and BSS, 50 μl of plasma was added separately into two sets of 4 mL BD vacutainer tubes. […]. Following a 30-min incubation on a nutator, the reaction liquid was removed, and the evolved sulfide gas subsequently trapped by adding 500 μl of 100 mM Tris-HCl buffer (pH 9.5, 0.1 mM DTPA) into the BD vacutainer tube and incubated again for 30 min on a nutator mixer. […]. Determination of ALS was made by reacting plasma samples with acidic phosphate buffer alone and subsequent trapping of evolved sulfide. Measurement of BSS was determined by subtracting the acid labile value from the total sulfide protocol containing TCEP reductant treatment under acidic conditions. […].
# In clinical practice, sugammadex is administered at a dose of 4 mg/kg to up to 16 mg/kg for its current use. In the inventors' mice studies, the inventors used a single injection of 0.2 mg/kg for pharmacokinetic studies, which was a 20 to 80 times lower than the clinical usage of sugammadex.
# CSE [4] = target: T1, CSE; test: CSE enzyme activity in endothelial cells; format: cell-based; design: host or cells: HUVEC; details: HUVECs, 100 μM, 30 min, vs PBS control
# Description: 2.2 Cell culture and treatments: Human umbilical vein endothelial cells (HUVECs) were purchased from Lifeline Cell Technology (Cat. No. FC-0044) and cultured in VascuLife® Basal Medium (Cat. No. LM-0002) supplemented with the appropriate LifeFactors® Kit (No. LL-0003). All cells were grown in tissue culture flasks at 37° C. and 5% CO2. HUVECs from passages 2-4 were used in the experiments.
# as §1
# [5] = tested on: CSE, p-eNOS and total eNOS; test: Western blot of mouse skeletal muscle; format: in vivo; details: methamphetamine treated mice
# Description: (§3) 2.4 ‘Binge and crash’ mouse methamphetamine model: Twelve-week-old male WT (C57BL6/J) male mice were used for these experiments. Mice were exposed to methamphetamine according to a known protocol that models binge methamphetamine exposure in humans. C57BL/6 male mice received 0-6 mg/kg methamphetamine (Methamphetamine HCl, Sigma-Aldrich, St. Louis, Mo.) through subcutaneous (s.c.) injection five days in a week for four weeks. Methamphetamine was dissolved in a sterile saline (Sigma-Aldrich) solution (0.9% w/v NaCl). Vehicle treated mice received the same volume of saline at all-time points for four weeks. Briefly, methamphetamine-exposed and saline-control mice were injected subcutaneously with methamphetamine or saline in a volume of 5 ml/kg with an insulin syringe. Alternating sites of injection were used to avoid any possible damage to tissue and possible stress of the animal. The dose of methamphetamine was escalated over the course of the first cycle, which occurs during the first week of injections (days 1-5) followed by three weeks of repeated cycles of meth injections (days 8-12, 15-19, and 22-26). Mice received 4 injections per day, 2 hours apart with doses of meth including 0, 1, 2, 3, 4, 5, and 6 mg/kg subcutaneously. At the end of the 4 weeks, mice were sacrificed by isoflurane overdose, plasma and tissue were harvested.
# 2.10 Western blot analysis: Mouse skeletal muscle tissues were homogenized in a solution containing 50 mM Tris buffer (pH 7.4), 2 mM EDTA, 5 mM EGTA, 0.1% SDS, a protease inhibitor cocktail (Roche, Indianapolis, Ind.), and phosphatase inhibitor cocktail type I and II (Sigma, Saint Louis, Mo.). Homogenates were centrifuged at 500×g for 15 min and supernatants were collected. Protein concentrations were analyzed using the Bradford protein assay (BIORAD, Hercules, Calif.). […] Chemiluminescent bands were detected and quantified using NIH Image J software.
# superoxide = test: Oxidative stress measurement (DHE staining) in skeletal muscle; format: in vivo, mouse; details: skeletal muscle sections, methamphetamine vs saline
# Description: as §3, with “The dose of methamphetamine was escalated over the course of the first cycle, which occurs during the first week of injections (days 1-5) followed by three weeks of repeated cycles of meth injections (days 8-12, 15-19, and 22-26). Mice received 4 injections per day, 2 hours apart with doses of meth including 0, 1, 2, 3, 4, 5, and 6 mg/kg subcutaneously. At the end of the 4 weeks, mice were sacrificed by isoflurane overdose, plasma and tissue were harvested.” left out
# 2.12 Oxidative Stress measurement: Levels of oxidative stress were measured by staining skeletal muscle tissue sections with 5 μM Dihydroethidium (DHE; Sigma-Aldrich, CA USA) and visualized using a NIKON ECLIPSE Ti-E microscope (Nikon Instruments Inc., Melville, N.Y.) for image acquisition. […]
# femoral artery = details: mouse, in vivo
# CSE [6] = format: in vivo, mouse; details: skeletal muscle tissues of methamphetamine treated mice
# H2S [7] = test: Sulfide pools in plasma of human methamphetamine users; details: methamphetamine-users vs age matched healthy controls
# Description: 2.6 Human blood collection: Human subjects were interviewed, and medical record data were collected for analysis of methamphetamine-use. Blood samples were collected from already-established catheterization into 6 mL BD vacutainer tubes with lithium heparin. Samples were transported to the lab within 15 min on ice and were centrifuged at 1500 RCF for 4 min at 4° C.
# as §2
# NO [8] = test: NO metabolite measurements in mouse plasma and skeletal muscle; format: in vivo
# H2S [9] = format: in vivo, mouse
# NO [10] = test: Total NO in plasma of human methamphetamine users; details: methamphetamine-users vs healthy controls
# skeletal muscle tissue = format: in vivo, mouse
# [11] = 4-week binge and crash methamphetamine
# [12] = 4-week binge and crash methamphetamine vs controls
# [13] = skeletal muscle, methamphetamine treated mice
# [14] = skeletal muscle, methamphetamine treatment
# T1 sequence (P32929 whole entry): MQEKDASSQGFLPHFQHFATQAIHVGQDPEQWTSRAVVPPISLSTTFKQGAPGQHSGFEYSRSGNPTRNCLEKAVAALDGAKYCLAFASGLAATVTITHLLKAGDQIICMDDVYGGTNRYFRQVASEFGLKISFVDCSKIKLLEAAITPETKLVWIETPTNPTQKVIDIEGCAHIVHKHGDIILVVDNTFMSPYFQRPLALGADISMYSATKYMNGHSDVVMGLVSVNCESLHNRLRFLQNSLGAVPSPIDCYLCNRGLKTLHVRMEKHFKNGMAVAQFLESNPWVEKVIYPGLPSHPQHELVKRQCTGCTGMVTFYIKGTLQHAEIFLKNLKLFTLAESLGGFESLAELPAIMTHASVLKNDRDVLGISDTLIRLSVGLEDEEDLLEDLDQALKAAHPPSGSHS
structure (smiles),measurement,setting,value
O=C([O-])CCSC[C@@H]1OC2O[C@@H]3[C@@H](O)[C@H](O)C(O[C@@H]4[C@@H](O)[C@H](O)C(O[C@@H]5[C@@H](O)[C@H](O)C(O[C@@H]6[C@@H](O)[C@H](O)C(O[C@@H]7[C@@H](O)[C@H](O)C(O[C@@H]8[C@@H](O)[C@H](O)C(O[C@@H]9[C@@H](O)[C@H](O)C(O[C@@H]1[C@@H](O)[C@@H]2O)O[C@H]9CSCCC(=O)[O-])O[C@H]8CSCCC(=O)[O-])O[C@H]7CSCCC(=O)O)O[C@H]6CSCCC(=O)O)O[C@H]5CSCCC(=O)O)O[C@H]4CSCCC(=O)[O-])O[C@H]3CSCCC(=O)[O-].[Na+].[Na+].[Na+].[Na+].[Na+] [Sugammadex],plasma CSE activity,CSE [1],increased
same,bound sulfane sulfur,[2],increases
same,total sulfide levels,[2],increases
same,plasma sulfide levels,[3]; CSE knockout mice,increases
same,plasma sulfide levels,[3]; wild type mice,increases
"CN[C@@H](C)Cc1ccccc1 [methamphetamine, Methamphetamine hydrochloride]",CSE enzyme activity,CSE [4],substantially decreased
same,CSE protein expression,[5],decreased expressions
same,p-eNOS protein expression,[5],decreased expressions
same,total eNOS protein,[5],no change
same,DHE fluorescence (oxidative stress),superoxide,significant increase
same,flow mediated vasodilation responses,femoral artery,significantly blunted
same,mean blood flow velocity recovery after occlusion removal,femoral artery,significantly blunts
same,CSE activity,CSE [6],significant decrease
same,acid-labile sulfide levels,H2S [7],decrease
same,plasma S-nitrosothiol (bound pool),NO [8]; [11],decreased
same,plasma free nitrite,NO [8]; [11],decreased
same,plasma total NO levels,NO [8]; [11],two-fold reduction
same,skeletal muscle total NO,NO [8]; methamphetamine treated mice vs saline,significantly reduced
same,reduction in plasma total sulfide,H2S [9]; [11],3 fold
same,plasma acid-labile sulfide,H2S [9]; [12],significant reduction
same,plasma bound sulfane sulfur,H2S [9]; [12],significant reduction
same,total NO levels,NO [10],trend of decreasing
same,eNOS expression,skeletal muscle tissue; methamphetamine treated mice,no change
same,CBS gene expression,skeletal muscle tissue; [13],no significant changes
same,CSE gene expression,skeletal muscle tissue; [13],significantly decreased
same,ICAM-1 expression,skeletal muscle tissue; [14],concomitant increase
same,VCAM-1 expression,skeletal muscle tissue; [14],concomitant increase
same,NOx4 expression,"skeletal muscle tissue; skeletal muscles, methamphetamine treatment",marginal increase

# From patent publication US11883426B2, “Treatment for methamphetamine cardiovascular disease” (priority 2020, dated 2024)
